From patent publication US11667678B2, “Peptides for the treatment of COVID-19” (priority 2019, dated 2023)
Peptide text beside a SMILES is read from it.

Key:
control mice = conditions: mouse, in vivo
[1] = target: ACE2:SARS-CoV-2 spike S1 binding (UniProt P0DTC2+Q9BYF1)
[2] = tested on: SARS-CoV-2 spike S1-intoxicated C57/BL6 mice; conditions: mouse, in vivo
[3] = tested on: human A549 lung cells stimulated with recombinant SARS-CoV-2 spike S1; conditions: 'See herein and Paidi et al.'; cited from earlier work
[4] = tested on: human A549 lung cells stimulated with poly IC; type: cell-based
[5] = tested on: human A549 lung cells stimulated with bacterial flagellin; type: cell-based
[6] = tested on: SARS-CoV-2 spike S1-intoxicated C57/BL6 mice; conditions: mouse, in vivo; remark: listed apart in the source
[7] = tested on: human A549 lung cells stimulated with HIV-1 Tat; type: cell-based
[8] = tested on: human A549 lung cells stimulated with recombinant SARS-CoV-2 spike S1; type: cell-based

| Compound | drug-related side effect (hair loss, appetite loss, weight loss, untoward infection and irritation) (control mice) | SARS-CoV-2 spike S1 binding to immobilized ACE2 [1] | arrhythmias (ECG heart functions) [2] | fever (body temperature) [2] | infiltration of neutrophils into the lungs [2] | level of proinflammatory molecules in lungs and serum [2] | locomotor activities [2] | serum level of C-reactive protein (CRP) [2] | SARS-CoV-2 spike S1-induced expression of proinflammatory cytokines [3] | expression of IL-6 and IL-1β induced by poly IC [4] | expression of IL-6 and IL-1β induced by flagellin [5] | body temperature (fever) [6] | level of IL-6 mRNA and protein as well as IL-1β mRNA in lungs [6] | level of serum IL-6 [6] | lung neutrophil infiltration [6] | expression of IL-6 and IL-1β induced by HIV-1 Tat [7] | SARS-CoV-2 spike S1-mediated induction of IL-6 and IL-1β (mRNA) [8] |
| --- | --- | --- | --- | --- | --- | --- | --- | --- | --- | --- | --- | --- | --- | --- | --- | --- | --- |
| CC(C)[C@H](NC(=O)CNC(=O)[C@H](CC(N)=O)NC(=O)[C@@H](N)[C@@H](C)O)C(=O)NCC(=O)N[C@@H](Cc1ccc(O)cc1)C(=O)O [wtAIDS, TNGVGY] (H-TNGVGY-OH) | did not notice any drug-related side effect |  |  |  |  |  |  |  |  |  |  |  |  |  |  |  |  |
| EDLFYQ (SPIDAR peptide) [wtSPIDAR] |  | Inhibition | reduced arrhythmias | reduced fever | attenuated | decreased | improved locomotor activities | normalized | markedly suppresses |  |  |  |  |  |  |  |  |
| TGGVGD (mAIDS peptide) |  | no such inhibition |  |  |  |  |  |  |  | had no effect | had no effect | no such inhibitory effect | no such inhibitory effect | no such inhibitory effect | no such inhibitory effect | had no effect | had no effect |
